From BindingDB's records for doi:10.7270/Q2N301S8 (D3R/Abbott, 2020) come the findings set out here.

In this assay the target is Beta-secretase 1 (Homo sapiens, UniProt P56817). The assay is described as follows: D3R2027.
From the text: D3R2027

Beta-secretase 1, sequence (P56817 whole entry): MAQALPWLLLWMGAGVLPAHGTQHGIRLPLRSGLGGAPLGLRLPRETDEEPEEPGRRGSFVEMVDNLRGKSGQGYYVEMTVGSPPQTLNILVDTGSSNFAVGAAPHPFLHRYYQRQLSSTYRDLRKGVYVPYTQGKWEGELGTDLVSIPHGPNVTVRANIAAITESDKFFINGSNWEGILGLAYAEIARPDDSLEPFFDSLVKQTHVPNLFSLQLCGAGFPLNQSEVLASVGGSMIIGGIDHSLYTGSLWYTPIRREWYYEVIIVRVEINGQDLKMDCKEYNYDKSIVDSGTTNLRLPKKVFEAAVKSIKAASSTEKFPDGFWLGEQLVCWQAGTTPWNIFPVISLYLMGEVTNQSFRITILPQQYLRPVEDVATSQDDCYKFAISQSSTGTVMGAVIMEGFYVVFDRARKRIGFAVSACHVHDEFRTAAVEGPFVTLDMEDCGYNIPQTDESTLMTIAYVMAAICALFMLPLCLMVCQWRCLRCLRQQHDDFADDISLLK

In turn, `CC(C)c1cccc(CNC[C@@H](O)[C@@H]2C[C@H](C)CC/C=C/CCCNc3cc(CO)cc(c3)C(=O)N2)c1` [BACE_66] had an IC50 of 0.35 µM. Then `C[C@@H]1CC/C=C/CCCNc2cc(CO)cc(c2)C(=O)N[C@H]([C@H](O)CNCc2cc(CC(C)(C)C)on2)C1` [BACE_67], with 0.21 µM; and `C[C@@H]1CCCCCCCNc2cc(cc(C(=O)N(C)C)c2)C(=O)N[C@H]([C@H](O)CNC2(c3cccc(C(C)(C)C)c3)CC2)C1` [BACE_68], with 0.0015 µM; and `CC(C)c1cccc(CNC[C@@H](O)[C@@H]2C[C@H](C)CCCCCCCN(S(C)(=O)=O)c3cc(cc(N(C)S(C)(=O)=O)c3)C(=O)N2)c1` [BACE_69], with 1.9 µM.

Consider `CC(C)c1cccc(C(C)(C)NC[C@@H](O)[C@@H]2C[C@H](C)CCCCCCCNc3cccc(n3)C(=O)N2)c1` [BACE_70], for which 2.9 µM corresponded to half-maximal inhibition (IC50).

In the case of `CC(C)c1cccc(CNC[C@@H](O)[C@@H]2C[C@@H]3CC[C@H](CCCCCNc4cc(cc(C(F)(F)F)c4)C(=O)N2)C3)c1` [BACE_71], the IC50 was found to be 0.34 µM. Then `CCOc1ccc(C(F)(F)F)c(CNC[C@@H](O)[C@@H]2C[C@H](C)CCOCCCCNc3cccc(c3)C(=O)N2)c1` [BACE_72], with 8.9 µM. With `CCOc1cc(CNC[C@@H](O)[C@@H]2C[C@H](C)CCOCCCCNc3cccc(c3)C(=O)N2)cc(C(F)(F)F)c1` [BACE_73] the figure was 6.3 µM; with `C[C@@H]1CCOCCCCNc2cc(ccc2Cl)C(=O)N[C@H]([C@H](O)CNCc2cc(C(C)(C)C)ccn2)C1` [BACE_74], 0.15 µM; with `COCc1cc2cc(c1)C(=O)N[C@H]([C@H](O)CNC1(c3cccc(C(C)(C)C)c3)CC1)C[C@H](C)CCOC/C=C\CN2` [BACE_75], 0.06 µM. `COCc1cc2cc(c1)C(=O)N[C@H]([C@H](O)CNCc1cc(C(F)(F)F)ccc1F)C[C@H](C)CCOCCCCN2` [BACE_76] yielded an IC50 of 5.6 µM. For `COCc1cc2cc(c1)C(=O)N[C@H]([C@H](O)CNC1(c3cccc(C(C)C)c3)CC1)C/C(C)=C/COCCCCN2` [BACE_77], the IC50 turned out to be 0.079 µM.

Compound `C[C@@H]1CCCCCCCOc2cccc(c2)C(=O)N[C@H]([C@H](O)CNCc2cncc(CC(C)(C)C)c2)C1` [BACE_78] yielded an IC50 of 0.88 µM. With `C[C@@H]1CCCCCCCOc2cccc(c2)C(=O)N[C@H]([C@H](O)CN[C@@H](C)c2cc(CC(C)(C)C)on2)C1` [BACE_79] the figure was 0.3 µM; with `CC(C)c1cccc(CNC[C@@H](O)[C@@H]2C[C@H](C)CCCCCCCOc3cc(cc(-c4ncco4)c3)C(=O)N2)c1` [BACE_80], 0.068 µM; with `C[C@@H]1CCCCCCCOc2cc(cc(-c3ncco3)c2)C(=O)N[C@H]([C@H](O)CNC2(c3cc(C(C)(C)C)ccn3)CC2)C1` [BACE_81], 0.0085 µM. With `CC(C)c1cccc(CNC[C@@H](O)[C@@H]2C[C@H](C)CCCCCCCOc3cc(cc(N(C)S(C)(=O)=O)c3)C(=O)N2)c1` [BACE_82] the figure was 0.011 µM; with `C[C@@H]1CCCCCCCOc2cc(cc(C(=O)N(C)C)c2)C(=O)N[C@H]([C@H](O)CNC2(c3cc(C(C)(C)C)ccn3)CC2)C1` [BACE_83], 0.006 µM.

Consider `C[C@@H]1CCCCCCCOc2cc(ccn2)C(=O)N[C@H]([C@H](O)CNC(C)(C)c2cc(CC(C)(C)C)on2)C1` [BACE_84], for which the midpoint of inhibition, the IC50, lay at 0.031 µM. Then `CC(C)c1cccc(CNC[C@@H](O)[C@@H]2C[C@H](C)CCCCCCCCC(=O)N3CCCC[C@H]3C(=O)N2)c1` [BACE_85], with 1.5 µM.

Take `CC(C)c1cccc(CNC[C@@H](O)[C@@H]2C[C@H](C)CCCCCCCC[C@@]3(O)CCC[C@H](C3)C(=O)N2)c1` [BACE_86]: the concentration for half-maximal inhibition (IC50) is 1.7 µM. With `C[C@H]1C(=O)N[C@H]([C@H](O)CNCc2cncc(C3CC3)c2)Cc2cccc(c2)CCCCCCC(=O)N1C` [BACE_87] the figure was 1.1 µM; with `CC(C)c1cccc(CNC[C@@H](O)[C@@H]2Cc3ccc(O)c(c3)Cc3ccccc3OCC(=O)N[C@@H](C)C(=O)N2)c1` [BACE_88], 4.3 µM. With `CC(C)c1cccc(CNC[C@@H](O)[C@@H]2Cc3cccc(c3)OCCCCO[C@H]3CCN(CC(=O)N2)C3=O)c1` [BACE_89] the figure was 0.26 µM. With `C[C@H]1C(=O)N[C@H]([C@H](O)CNC2(c3cccc(Br)c3)CC2)Cc2cccc(c2)OCCCCCC(=O)N1C` [BACE_90] the figure was 0.17 µM; with `CC(C)c1ccc2c(c1)[C@@H](NC[C@@H](O)[C@@H]1Cc3cccc(c3)OCCCCCC(=O)N(C)[C@@H](C)C(=O)N1)CC(C)(C)O2` [BACE_91], 0.002 µM; with `C[C@@H]1CC(=O)NCCCCOc2cccc(c2)C[C@@H]([C@H](O)CNCc2cccc(C(C)(C)C)c2)NC1=O` [BACE_92], 0.069 µM. `C[C@@H]1CC(=O)NCCCCOc2cccc(c2)C[C@@H]([C@H](O)CNC2(c3cccc(C(C)(C)C)c3)CCCCC2)NC1=O` [BACE_93] returned an IC50 of 0.01 µM.

Regarding `CC(C)c1cccc(CNC[C@@H](O)[C@@H]2Cc3cccc(c3)OCCCCS(=O)(=O)C[C@@H](C)C(=O)N2)c1` [BACE_94], the IC50 stood at 0.029 µM.

`C[C@@H]1CS(=O)(=O)CCCCOc2cccc(c2)C[C@@H]([C@H](O)CNC2(c3cccc(Br)c3)CC2)NC1=O` [BACE_95]: inhibition was half-maximal at 0.068 µM (IC50). With `CC(C)(C)Cc1cc(C(C)(C)NC[C@@H](O)[C@@H]2Cc3cccc(c3)OCCCCOc3cc(Cl)cc(c3)C(=O)N2)no1` [BACE_96] the figure was 0.008 µM; with `Cc1cc2cc(n1)NCCCCc1cccc(c1)C[C@@H]([C@H](O)CNCc1cc(C(C)(C)C)ccn1)NC2=O` [BACE_97], 0.003 µM. With `CC(C)c1ccnc(C2(NC[C@@H](O)[C@@H]3Cc4cccc(c4)CCCCNc4cc(cc(Cl)n4)C(=O)N3)CC2)c1` [BACE_98] the figure was 0.0005 µM. Then `COc1cc2cc(n1)N(C)CCCCc1cccc(c1)C[C@@H]([C@H](O)CNCc1cccc(C(C)C)c1)NC2=O` [BACE_99], with 0.089 µM; and `COc1ccc2cc1OCCCCNc1cc(cc(Cl)n1)C(=O)N[C@H]([C@H](O)CNCc1cccc(C(C)C)c1)C2` [BACE_100], with 0.039 µM. Turning to `CC(=O)N1CCCCOc2cccc(c2)C[C@@H]([C@H](O)CNCc2cc(C(C)C)ccn2)NC(=O)c2cc(C)nc1c2` [BACE_101], the IC50 is 5.5 µM. On to `Cc1cc2cc(n1)NC/C=C\COc1cc(ccc1F)C[C@@H]([C@H](O)CNC1(c3cccc(C(C)(C)C)c3)CC1)NC2=O` [BACE_102], for which the IC50 came out at 0.1 µM. As to `CC(C)(C)c1ccnc(CNC[C@@H](O)[C@@H]2Cc3cccc(c3)OC/C=C\CNc3cc(cc(Cl)n3)C(=O)N2)c1` [BACE_103], the midpoint of inhibition, the IC50, lay at 0.089 µM. Then `NC[C@@H](O)[C@@H]1Cc2cccc(c2)OC/C=C\CNc2cc(cc(Cl)n2)C(=O)N1` [BACE_104], with 40 µM. With `Cc1cc2cc(c1)OCCCCNc1cc(cc(Cl)n1)C(=O)N[C@H]([C@H](O)CNCc1cccc(C(C)C)c1)C2` [BACE_105] the figure was 0.068 µM. Then `Cc1cc2cc(n1)OCCCCc1cccc(c1)C[C@@H]([C@H](O)CNC(C)(C)c1cccc(C(C)C)c1)NC2=O` [BACE_106], with 0.15 µM; and `Cc1cc2cc(n1)OCCCCc1cc(cc(Cl)c1O)C[C@@H]([C@H](O)CNC(C)(C)c1cccc(C(C)C)c1)NC2=O` [BACE_107], with 0.047 µM; and `Cc1cc2cc(n1)OCCCCc1cc(cc(Cl)c1O)C[C@@H]([C@H](O)CNC(C)(C)c1cc(CC(C)(C)C)on1)NC2=O` [BACE_108], with 0.016 µM.

The IC50 is the point on the concentration scale where inhibition reaches its midpoint. Low values mean higher potency, high ones lower potency.
